Measurements from patent US20230248775A1, “GENETIC MODIFICATION OF MAMMALIAN CELLS TO CONFER RESISTANCE TO CSF1R ANTAGONISTS” (THE REGENTS OF THE UNIVERSITY OF CALIFORNIA, priority 2021, published 2023).
“Also recorded” adds a separate entry of the source.

Legend:
[1] = system: wild-type (WT) unedited human iPSC-microglia; test: Cell death assay (fluorogenic caspase 3/7, IncuCyte time-lapse imaging), WT microglia; type: cell-based; conditions: 250 nM, 500 nM, 1 μm, 24 hours, compared to DMSO control
Source text: (§1) FIGS. 4A, 4B, 4C, 4D, and 4E show human stem cell-derived microglia are also susceptible to and killed by CSF1R inhibition in vitro. […] Images captured on Incucyte S3 live-cell imager. […] Images captured on Incucyte S3 live-cell imager. […] Images captured on Incucyte S3 live-cell imager. […] Images captured on Incucyte S3 live-cell imager. […] For all panels, n=4 images in six independent wells were quantified. Data represented as mean values±SEM.
(§2) Strategy 1: A crystal structure of the CSF1R receptor bound to an antagonist (PMID: 31434879) to predict amino acid substitutions that may sterically hinder the binding of CSF1R antagonists while not impairing the normal binding of ATP into the same binding pocket. The crystal structure of PLX5622 bound to human CSF1R was obtained and the ATP binding pocket was examined (FIG. 7A). Through molecular modeling single amino acid changes were predicted that would likely impair the binding of PLX5622 or PLX3397 or other CSF1R antagonists while not disrupting normal ATP binding to CSF1R. […] Other mutations could also be explored to prevent binding (FIG. 7D). […] The resulting iPSCs were then differentiated into microglia and exposed to varying concentrations of either PLX3397 or PLX5622. To detect microglial cell death (apoptosis) a caspase-3/7 fluorogenic reporter was used. […] FIG. 4F provided representative images of cell density (phase-contrast microscopy, 1st column) and fluorescent Caspase-3/7 activity (2nd column) across each dose of PLX3397 and PLX5622.
(§3) Resistance to each of the CSF1R inhibitors tested was quantified using a fluorogenic caspase 3/7 detector (Essen BioScience) and time-lapse imaging over 24 hours.
(§4) Cell death assay: iPS-microglia were plated at 70K cells per 96-well plate (6 wells per line per condition). At time 0, all microglia were treated with IncuCyte Caspase-3/7 Green Apoptosis Assay Reagent 1:1000. Cells were maintained in the described medium: fresh complete medium+0.1% DMSO, complete media+250 nM PLX3397, complete medium+500 nM PLX3397, complete medium+[…] PLX3397, complete medium+250 nM PLX5622, complete medium+500 nM PLX5622, complete medium +[…] PLX5622, complete medium+250 nM Edicotinib, complete medium+500 nM Edicotinib, complete medium +1 μm Edicotinib, complete medium+250 nM BLZ945, complete medium+500 nM BLZ945, complete medium +1 μm BLZ945. Four 20× images per well were collected every hour for 24 hours. Using IncuCyte 2020B software, image masks for phase confluence (visually gated out apoptotic cells) as well as caspase 3/7 signal (green) were generated. Graphs display caspase normalized to phase confluence, completed with 3 lines: WT, G795A, G795C (see FIGS. 4A, 4B, 4C, 4D, and 4E).

G795A iPSC-microglia [2] = test: Cell death assay (fluorogenic caspase 3/7, IncuCyte time-lapse imaging), G795A microglia; type: cell-based, human; conditions: 250 nM, 500 nM, 1 μm, 24 hours, compared to DMSO control
Source text: as §1, §2, §3, §4

G795C iPSC-microglia = test: Cell death assay (fluorogenic caspase 3/7, IncuCyte time-lapse imaging), G795C microglia; type: cell-based, human; conditions: 250 nM, 500 nM, 1 μm, 24 hours, compared to DMSO control
Source text: as §1, §2, §3, §4

[3] = system: wild-type (WT) iPSC-microglia; test: LIVE/DEAD two-color viability/cytotoxicity, WT microglia; type: cell-based, human; conditions: 500 nM or 1 uM, 24 hours
Experimental: (§5) FIGS. 5A and 5B show G795A iPSC-derived microglia are resistant to CSF1R antagonist-induced cell death. As cells can die from processes other than caspase-mediated apoptosis, it is important to determine whether the G795A mutation provides a more broad-based resistance to any form of cell death induced by CSF1R antagonists, Therefore, G795A and wild-type (WT) iPSC-microglia were treated for 24 hours with either 500 nM (FIG, 5A) or 1 uM (FIG. 5B) of DMSO vehicle control or one of four CSF1R antagonists; PLX3397, PLX5622, Edicotinib, and BLZ945. The percent of live versus dead cells was then quantified using a two-color viability/cytotoxicity approach (Thermo L3224; LIVE/DEAD™ Viability/Cytotoxicity Kit). Very few dead microglia are observed 24 hours after treatment with DMSO. […] Live cells are denoted with a circle, […]

G795A iPSC-microglia [4] = test: LIVE/DEAD two-color viability/cytotoxicity, G795A microglia; type: cell-based, human; conditions: 500 nM or 1 uM, 24 hours
Experimental: as §5

wild-type human xMGs = test: PLX3397 chow treatment of xenotransplanted mice, wild-type xMGs (IBA-1/Ku80/Ki67 immunohistochemistry); type: in vivo, mouse; conditions: 600 mg/kg of PLX3397 in rodent chow ad libitum, 4 weeks
Source text: (§6) FIGS. 11A, 11B, 11C, 11D, 11E, 11F, 11G, 11H, 11I, and 11J show G795A iPSC-derived microglia are resistant to CSF1R […] treatment and enable robust engraftment of human microglia within the adult mammalian brain. Xenotransplantation-compatible mice received bilateral stereotactic intrahippocampal injections of 500,000 iPSC-derived human microglia (xMGs) at 2-months of age. Mice received xMGs differentiated from either a homozygous CSF1R-resistant G795A human iPSC line or an isogenic unmodified Wild-Type human i PSC. At fours of age, mice were treated with 600 mg/kg of PLX3397 in rodent chow ad libitum for 4 weeks duration. Mice were then sacrificed, and half-brains were examined by fluorescent immunohistochemistry and confocal microscopy.

G795A xMGs = test: PLX3397 chow treatment of xenotransplanted mice, G795A xMGs (IBA-1/Ku80/Ki67 immunohistochemistry); type: in vivo, human; conditions: 600 mg/kg of PLX3397 in rodent chow ad libitum, 4 weeks
Source text: as §6

WT microglia = test: RNA-seq transcriptomic response to PLX5622, WT microglia; type: cell-based, human; conditions: 24-hour treatment, compared to DMSO-treated cells
Source text: (§7) FIGS. 2A, 2B, 2C, 2D, 2E, and 2F show selected CSF1R mutations have little effect on transcriptomic signature while simultaneously imparting resistance to PLX5622.

[5] = system: MUT1 (i.e., G795A) microglia; test: RNA-seq transcriptomic response to PLX5622, MUT1 (G795A) microglia; type: cell-based, human; conditions: 24-hour treatment, compared to DMSO-treated cells
Source text: as §7

[6] = system: MUT2 (i.e., G795C) microglia; test: RNA-seq transcriptomic response to PLX5622, MUT2 (G795C) microglia; type: cell-based, human; conditions: 24-hour treatment, compared to DMSO-treated cells
Source text: as §7

Compound	caspase 3/7 levels (cell death / apoptosis) [1]	caspase 3/7 levels (cell death / apoptosis) (G795A iPSC-microglia [2])	caspase 3/7 levels (cell death / apoptosis) (G795C iPSC-microglia)	cell death (percent of live versus dead cells) [3]	cell death (percent of live versus dead cells) (G795A iPSC-microglia [4])	survival of transplanted human xMGs in mouse brain (wild-type human xMGs)	survival / expansion of transplanted human xMGs in mouse brain (G795A xMGs)	transcriptomic alterations (FDR≤0.05; log2(FC)≥±1) (WT microglia)	transcriptomic alterations (FDR≤0.05; log2(FC)≥±1) [5]	transcriptomic alterations (FDR≤0.05; log2(FC)≥±1) [6]
CC1(C)CC=C(c2nc(C3CC(C)(C)OC(C)(C)C3)ccc2NC(=O)c2nc(C#N)c[nH]2)CC1 [Edicotinib]	significant levels of increased caspase	no significant increase in caspase levels	no significant increase in caspase levels	substantial cell death	little-to-no cell death					
FC(F)(F)c1ccc(CNc2ccc(Cc3c[nH]c4ncc(Cl)cc34)cn2)cn1 [PLX3397]	robust dose-dependent induction of apoptosis; also recorded: significant levels of increased caspase	complete resistance to cell death; also recorded: no significant increase in caspase levels	complete resistance to cell death; also recorded: no significant increase in caspase levels	substantial cell death	little-to-no cell death	only a handful of wild-type human xMGs survive	proliferate and expand from the initial injection sites			
COc1ncc(F)cc1CNc1ccc(Cc2c[nH]c3ncc(C)cc23)c(F)n1 [PLX5622]	robust dose-dependent induction of apoptosis; also recorded: significant levels of increased caspase	complete resistance to cell death; also recorded: no significant increase in caspase levels	complete resistance to cell death; also recorded: no significant increase in caspase levels	substantial cell death	little-to-no cell death			induced significant transcriptomic alterations	failed to significantly alter gene expression	failed to significantly alter gene expression
CNC(=O)c1cc(Oc2ccc3nc(N[C@@H]4CCCC[C@H]4O)sc3c2)ccn1 [BLZ945]	significant levels of increased caspase	no significant increase in caspase levels	no significant increase in caspase levels	substantial cell death	little-to-no cell death					
